{"source": "ChEMBL document CHEMBL1139264", "about": "(Bioorg Med Chem Lett, 2009)", "key": {"[1]": {"molecular_target": "Estrogen receptor beta (Homo sapiens) (UniProt Q92731)", "sequence (Q92731 whole entry)": "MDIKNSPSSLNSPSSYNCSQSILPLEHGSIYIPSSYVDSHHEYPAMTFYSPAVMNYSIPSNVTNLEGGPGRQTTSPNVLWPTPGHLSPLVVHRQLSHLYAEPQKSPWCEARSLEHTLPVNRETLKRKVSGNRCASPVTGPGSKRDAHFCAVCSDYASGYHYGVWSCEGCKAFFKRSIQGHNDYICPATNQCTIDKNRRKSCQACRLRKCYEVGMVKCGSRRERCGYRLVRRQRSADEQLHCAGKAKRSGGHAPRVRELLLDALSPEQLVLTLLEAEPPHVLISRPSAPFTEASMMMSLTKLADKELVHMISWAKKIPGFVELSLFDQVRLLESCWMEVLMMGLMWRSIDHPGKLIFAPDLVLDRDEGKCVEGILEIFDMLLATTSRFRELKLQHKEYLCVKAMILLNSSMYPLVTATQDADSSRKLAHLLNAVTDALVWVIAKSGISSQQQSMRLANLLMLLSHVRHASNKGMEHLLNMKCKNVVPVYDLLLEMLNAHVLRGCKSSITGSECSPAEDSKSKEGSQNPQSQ", "experiment": "Binding affinity to human ERbeta receptor relative to estrogen"}, "Estrogen receptor": {"molecular_target": "T1, Estrogen receptor (Homo sapiens, UniProt P03372)", "T1 sequence (P03372 whole entry)": "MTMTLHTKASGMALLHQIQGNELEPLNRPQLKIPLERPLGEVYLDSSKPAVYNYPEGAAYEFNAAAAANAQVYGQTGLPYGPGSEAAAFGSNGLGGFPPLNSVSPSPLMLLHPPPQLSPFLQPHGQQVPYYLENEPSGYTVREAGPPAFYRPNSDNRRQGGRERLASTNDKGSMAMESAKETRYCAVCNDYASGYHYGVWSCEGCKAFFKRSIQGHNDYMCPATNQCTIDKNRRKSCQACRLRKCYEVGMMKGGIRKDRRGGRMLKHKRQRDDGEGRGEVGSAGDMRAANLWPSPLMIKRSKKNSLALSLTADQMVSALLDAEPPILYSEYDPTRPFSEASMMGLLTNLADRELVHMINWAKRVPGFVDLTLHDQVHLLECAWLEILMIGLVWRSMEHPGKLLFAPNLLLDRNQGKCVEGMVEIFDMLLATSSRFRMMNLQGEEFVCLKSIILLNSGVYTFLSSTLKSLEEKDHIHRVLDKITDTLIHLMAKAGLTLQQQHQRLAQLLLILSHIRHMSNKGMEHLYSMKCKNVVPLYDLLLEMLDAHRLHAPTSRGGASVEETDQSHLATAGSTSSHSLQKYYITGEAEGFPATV", "description": "Antagonist activity at human ERalpha receptor expressed in HEC1 cells assessed as transcriptional activation after 24 hrs by luciferase reporter gene assay"}}, "data": [{"smiles": "Cc1c(-c2ccc(O)cc2)nn(-c2ccc(O)cc2)c1-c1ccc(CCCN2CCCCC2)cc1", "values": [{"measurement": "Activity", "setting": "[1]", "value": 0.016, "unit": "%"}, {"measurement": "IC50", "setting": "Estrogen receptor", "value": 20, "unit": "nM"}]}, {"smiles": "Cc1c(-c2ccc(O)cc2)nn(-c2ccc(O)cc2)c1-c1ccc(O)cc1", "values": [{"measurement": "Activity", "setting": "[1]", "value": 0.039, "unit": "%"}]}, {"smiles": "Cc1c(-c2ccc(O)cc2)nn(-c2ccc(O)cc2)c1-c1ccc(OCCN2CCCCC2)cc1", "values": [{"measurement": "Activity", "setting": "[1]", "value": 0.05, "unit": "%"}]}, {"smiles": "Cc1c(-c2ccc(O)cc2)nn(-c2ccc(O)cc2)c1-c1ccc(/C=C/C(=O)N2CCCCC2)cc1", "values": [{"measurement": "Activity", "setting": "[1]", "value": 0.015, "unit": "%"}, {"measurement": "IC50", "setting": "Estrogen receptor", "value": 1000, "unit": "nM"}]}]}
